Experiments:
[1] = system: HAUSP TRAF-like domain (residues 1–206); test: gel filtration binding assay with HAUSP (residues 1–206); details: Superdex-200, 25 mM Tris pH 8.0, 100 mM NaCl, 2 mM DTT, 4 °C, SDS-PAGE/Coomassie, protein alone, no competitor
Method: (§1) Size-exclusion chromatography (gel filtration), using a Superdex-200 column (10/30, Amersham Pharmacia Biotech, Piscataway, New Jersey, United States), was employed to carry out all the in vitro binding assays. Proteins subjected to binding tests were incubated at 4 °C for at least 45 min to allow equilibrium to be reached. The flow rate was 0.5 ml/min, and the buffer contained 25 mM Tris (pH 8.0), 100 mM NaCl, and 2 mM DTT. All fractions were collected at 0.5 ml each. Aliquots of relevant fractions were mixed with SDS sample buffer and subjected to SDS-polyacrylamide gel electrophoresis. The proteins were visualized by Coomassie Blue staining. The column was calibrated with molecular-mass standards.

[2] = biological target: T1, HAUSP TRAF-like domain (residues 53–206) (Homo sapiens, UniProt Q93009); test: gel filtration binding assay of MDM2 fragments with HAUSP TRAF-like domain; details: Superdex-200, HAUSP residues 53–206, 25 mM Tris pH 8.0, 100 mM NaCl, 2 mM DTT, 4 °C
T1 construct: GST (N); made in house; host or cells: Escherichia coli BL21(DE3), vector pGEX-2T
T1 sequence (Q93009 53-206): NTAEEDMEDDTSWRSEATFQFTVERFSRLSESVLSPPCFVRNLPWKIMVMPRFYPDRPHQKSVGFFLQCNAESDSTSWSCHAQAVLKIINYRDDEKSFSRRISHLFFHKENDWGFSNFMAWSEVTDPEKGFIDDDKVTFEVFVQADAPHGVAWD
Method: as §1

full-length HAUSP = test: gel filtration binding assay of MDM2 with full-length HAUSP; details: Superdex-200, 25 mM Tris pH 8.0, 100 mM NaCl, 2 mM DTT, 4 °C
Method: as §1

| complex formation with HAUSP (residues 1–206) [1] | complex formation with HAUSP TRAF-like domain [2] | complex formation with full-length HAUSP (full-length HAUSP) | Substance |
| --- | --- | --- | --- |
| form a stable complex | – | – | MDM2 (residues 170–423): MDM2 fragment, residues 170–423 |
| – | formed a stable complex | formed a stable complex | MDM2 (residues 170–432): 33-kDa fragment of MDM2 (residues 170–432) |

— PMC1334386 (PLoS Biology, 2006)
